# Data taken from patent US10564168B2, “Method for treating male infertility based on NOX5 protein levels in sperm” (priority 2013, dated 2020).
# How the values were obtained:
# [1] = system: human spermatozoa; assay: Superoxide assay, luminol-based Diogenes chemiluminescence, whole spermatozoa; assay type: cell-based; details: for effect on ionomycin-induced superoxide chemiluminescence signal: 1 μM ionomycin; for effect on ionomycin-induced superoxide chemiluminescence signal / effect on H2O2-induced superoxide chemiluminescence signal: SOD 400 U/ml, DPI 10 μM, BAPTA 100 μM; for effect on H2O2-induced superoxide chemiluminescence signal: 100 μM H2O2, GKT136901 0.5 μM
# Source text: (§1) Human semen samples were obtained from patient donors as a part of their clinical evaluation for fertility and reproductive health status. Portions of the samples not required for clinical analyses were de-identified and made available for the research protocols described. Under these conditions, the Institutional Review Board determined that the study is exempt from requirements for protocol approval and informed consent. Semen was collected by masturbation into sterile plastic containers and allowed to liquefy for at least 30 min before being processed. The samples were centrifuged (500 g, 15 min) to separate the seminal plasma from spermatozoa, and the pellet washed twice in phosphate-buffered normal saline pH 7 with 10 mM glucose (PBS-G). The spermatozoa were then counted in a hemocytometer chamber, resuspended in PBS-G at 10^9/ml, and used for superoxide assays. Sperm samples containing leukocytes detected by microscopic examination were excluded from the study. For selected experiments, motile spermatozoa were collected using the swim-up procedure (Vijayakumar et al. (1986) Arch. Androl. 17, 223-230; Parrish and Foote (1987) J. Androl. 8, 259-266). Briefly, the spermatozoa were sedimented by centrifugation (500 g, 15 min) and the tube was then incubated upright for 60 min at 37° C. Motile spermatozoa that progressed from the pellet into the supernatant (swim-up fraction) were collected by aspiration and counted.
# Superoxide generation was measured using a luminol-based chemiluminescence assay (Diogenes reagent, National Diagnostics, Atlanta, Ga.). […] Spermatozoa were suspended at 10^9/ml in PBS-G. A 100 μl aliquot of the Diogenes reagent was mixed with 2×10^7 spermatozoa and incubated at 37° C. for 2-4 minutes. Superoxide generation was measured at baseline and after stimulation with ionomycin (1 μM), phorbol myristate acetate (PMA, 1 μg/ml), or H2O2 (100 μM and other concentrations as indicated). Chemiluminescence was measured every 30-60 sec for up to 10-15 min using a Clarity™ BioTek luminometer and an integration time of 5 sec.
# Spermatozoa were pre-incubated for 5 min prior to the superoxide assay with 400 U/ml superoxide dismutase (SOD), 10 μM diphenylene iodonium (DPI), or 100 μM 1,2-Bis (2-aminophenoxy) ethane-N,N,N′,N′-tetraacetic acid (BAPTA). […] In some experiments, cells were pre-exposed to the NOX inhibitor 2-(2-chlorophenyl)-4-methyl-5-(pyridin-2-ylmethyl)-1H-pyrazolo[4,3-c]pyridine-3,6(2H,5H)-dione (GKT136901, 0.5 μM and other concentrations as indicated) for 10 min before exposure to either H2O2 or PMA.
# [2] = system: human spermatozoa; assay: Swim-up procedure, sperm motility; assay type: cell-based; details: GKT136901 0.5 μM or DPI 10 μM; 100 μM H2O2
# Source text: as §1
# [3] = molecular target: T1, NOX1 (Homo sapiens, UniProt Q9Y5S8); details: cited from earlier work
# T1 sequence (Q9Y5S8 1-564): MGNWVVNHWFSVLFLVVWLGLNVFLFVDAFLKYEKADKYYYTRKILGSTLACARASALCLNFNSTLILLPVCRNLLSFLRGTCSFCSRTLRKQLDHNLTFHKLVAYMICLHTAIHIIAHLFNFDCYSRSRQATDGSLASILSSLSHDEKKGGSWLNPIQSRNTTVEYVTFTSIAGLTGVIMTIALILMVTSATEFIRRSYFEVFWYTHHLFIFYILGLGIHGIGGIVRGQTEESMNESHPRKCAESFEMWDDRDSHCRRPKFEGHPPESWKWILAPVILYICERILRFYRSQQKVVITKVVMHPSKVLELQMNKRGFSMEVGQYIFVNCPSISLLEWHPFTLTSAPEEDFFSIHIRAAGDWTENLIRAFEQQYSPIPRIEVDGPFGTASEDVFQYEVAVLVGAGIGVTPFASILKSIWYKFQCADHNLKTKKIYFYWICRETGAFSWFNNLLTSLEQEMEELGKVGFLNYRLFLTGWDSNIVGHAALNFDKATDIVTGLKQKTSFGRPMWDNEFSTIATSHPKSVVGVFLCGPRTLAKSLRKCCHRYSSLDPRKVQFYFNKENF
# T1 sequence (P13498 1-195 partner): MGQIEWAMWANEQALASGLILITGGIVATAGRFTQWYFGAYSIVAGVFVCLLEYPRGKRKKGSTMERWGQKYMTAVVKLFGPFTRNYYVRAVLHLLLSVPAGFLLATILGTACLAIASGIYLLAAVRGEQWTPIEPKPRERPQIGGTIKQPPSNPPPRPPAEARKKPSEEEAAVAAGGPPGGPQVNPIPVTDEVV
# [4] = molecular target: T2, NOX2 (Homo sapiens, UniProt P04839); details: NOX1 and NOX4 versus NOX2; cited from earlier work
# T2 sequence (P04839 2-570 limits assumed): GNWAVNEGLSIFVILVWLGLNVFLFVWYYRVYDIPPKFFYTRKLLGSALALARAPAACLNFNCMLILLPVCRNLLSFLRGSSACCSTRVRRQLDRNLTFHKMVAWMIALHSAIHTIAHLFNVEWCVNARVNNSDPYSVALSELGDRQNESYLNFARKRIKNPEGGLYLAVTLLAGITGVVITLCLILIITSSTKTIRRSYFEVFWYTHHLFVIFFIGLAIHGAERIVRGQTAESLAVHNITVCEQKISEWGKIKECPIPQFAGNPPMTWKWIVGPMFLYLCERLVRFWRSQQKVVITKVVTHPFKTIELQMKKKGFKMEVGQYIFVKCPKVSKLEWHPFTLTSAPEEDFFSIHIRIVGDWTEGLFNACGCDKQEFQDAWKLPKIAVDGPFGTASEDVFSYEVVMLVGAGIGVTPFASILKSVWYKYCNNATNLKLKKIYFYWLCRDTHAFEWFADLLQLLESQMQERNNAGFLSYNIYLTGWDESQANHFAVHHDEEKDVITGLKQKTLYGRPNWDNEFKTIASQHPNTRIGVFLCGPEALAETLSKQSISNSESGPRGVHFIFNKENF
# T2 sequence (P13498 1-195 partner): T1 sequence (P13498 1-195 partner)
# [5] = molecular target: T3, NOX5 (Homo sapiens, UniProt Q96PH1); details: same conditions as Laleu et al.; GenKyoTex, personal communication; read-out: inhibitory constant for NOX5; cited from earlier work
# T3 sequence (Q96PH1 1-765): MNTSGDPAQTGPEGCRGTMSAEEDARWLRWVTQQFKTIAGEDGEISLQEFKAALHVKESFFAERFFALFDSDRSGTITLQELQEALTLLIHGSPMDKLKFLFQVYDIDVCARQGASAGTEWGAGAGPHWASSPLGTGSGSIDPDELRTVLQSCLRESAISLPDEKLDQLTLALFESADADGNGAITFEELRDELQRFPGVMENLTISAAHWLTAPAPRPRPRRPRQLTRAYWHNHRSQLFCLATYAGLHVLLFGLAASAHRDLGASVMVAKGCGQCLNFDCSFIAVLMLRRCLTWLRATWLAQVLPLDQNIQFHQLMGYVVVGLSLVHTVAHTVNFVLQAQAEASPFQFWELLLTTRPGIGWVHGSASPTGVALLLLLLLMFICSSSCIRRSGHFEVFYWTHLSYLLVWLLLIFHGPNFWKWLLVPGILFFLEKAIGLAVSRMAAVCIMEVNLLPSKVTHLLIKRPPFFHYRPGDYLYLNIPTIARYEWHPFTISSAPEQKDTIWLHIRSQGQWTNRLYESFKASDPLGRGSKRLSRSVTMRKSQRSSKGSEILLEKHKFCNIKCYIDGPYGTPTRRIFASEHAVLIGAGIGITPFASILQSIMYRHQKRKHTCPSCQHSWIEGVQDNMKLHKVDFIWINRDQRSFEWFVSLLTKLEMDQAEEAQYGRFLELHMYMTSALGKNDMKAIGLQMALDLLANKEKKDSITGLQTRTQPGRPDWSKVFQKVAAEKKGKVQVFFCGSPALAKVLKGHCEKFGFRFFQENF
# [6] = system: HV1 proton channels in K562 and K562/NOX5 cells; assay: Perforated-patch clamp recording of proton currents; assay type: cell-based, human
# Source text: Micropipettes were pulled in several stages using a Flaming-Brown automatic pipette puller (Sutter Instruments, San Rafael, Calif.) from 7052 glass (Garner Glass Co., Claremont, Calif., USA), coated with Sylgard 184 (Dow Corning Corp., Midland, Mich.), heat polished to a tip resistance between 2 and 10 MΩ. Electrical contact with the pipette solution was achieved using a chloride silver wire. The reference electrode was made from an Ag—AgCl wire connected to the bath through an agar bridge made with Ringer solution (160 mM NaCl, 4.5 mM KCl, 2 mM CaCl2, 1 mM MgCl2, 5 mM Hepes adjusted to pH 7.4). Current signal from the Axopatch 200B (Axon Instruments, Foster City, Calif.) was recorded on PC through a Lab View SCB-68 (National Instruments, Austin, Tex.). Further data analysis was made with Origin 7.5. Seals were formed in Ringer solution in the bath, and the potential was zeroed when the pipette was in contact with the cell. Most measurements were done between 21 and 25° C.
# K562 cells were transferred on chips or pipette into the recording chamber. To leave internal signaling pathways undisturbed, the perforated patch configuration was used. Low access resistance was usually reached after 5-10 minutes. The perforated patch recording bath and pipette solution contained 50 mM NH^4+ in the form of (NH4)2SO4, 2 mM MgCl2, 5 mM Bes or Pipes buffer, and 1 mM EGTA adjusted to pH 7.0 with TMAOH. […]
smiles,measurement,setting,value
"c1ccc2c(c1)[I+]c1ccccc1-2 [DPI, diphenylene iodonium]",effect on ionomycin-induced superoxide chemiluminescence signal,[1],blocked
same,effect on H2O2-induced superoxide chemiluminescence signal,[1],nearly completely abrogated
same,effect of pre-incubation on the H2O2 effect on motility,[2],abrogated
"Cc1c2c(=O)n(-c3ccccc3Cl)[nH]c2cc(=O)n1Cc1ccccn1 [GKT136901, 2-(2-chlorophenyl)-4-methyl-5-(pyridin-2-ylmethyl)-1H-pyrazolo[4,3-c]pyridine-3,6(2H,5H)-dione]",effect on PMA-stimulated superoxide production,[1]; 1 μg/ml PMA,inhibited the stimulation of superoxide production by PMA in a concentration-dependent manner
same,effect on H2O2-induced superoxide chemiluminescence signal,[1],nearly completely abrogated
same,"potency in inhibiting PMA-stimulated superoxide production, sperm cells as compared with neutrophils",[1]; human spermatozoa versus human neutrophils,~10 fold
same,effect of pre-incubation on the H2O2 effect on motility,[2],abrogated
same,Ki,[3],160 ± 10 nM
same,selectivity over NOX2,[4],~9 fold
same,Ki,[5],450 ± 10 nM
"CCCCCCCCCCCCCC(=O)O[C@@H]1[C@@H](C)[C@@]2(O)[C@@H](C=C(CO)C[C@]3(O)C(=O)C(C)=C[C@@H]23)[C@@H]2C(C)(C)[C@]12OC(C)=O [PMA, phorbol myristate acetate]",response of proton channels to stimulation,[6]; 60 nM PMA,enhanced gating mode
"O=C(O)CN(CC(=O)O)c1ccccc1OCCOc1ccccc1N(CC(=O)O)CC(=O)O [BAPTA, 1,2-Bis (2-aminophenoxy) ethane-N,N,N′,N′-tetraacetic acid]",effect on ionomycin-induced superoxide chemiluminescence signal,[1],blocked
same,effect on H2O2-induced superoxide chemiluminescence signal,[1],nearly completely abrogated
C[C@H](CCC(=O)O)C[C@H](C)C[C@H](C)C(=O)/C=C(\O)[C@H](C)C[C@H](C)C/C=C/[C@@H](C)[C@@H](O)[C@@H](C)[C@@H](O)C[C@@H]1CC[C@@](C)([C@H]2CC[C@@](C)([C@@H](C)O)O2)O1 [ionomycin],induction of superoxide production by spermatozoa,"[1]; ionomycin 1 μM, PMA 1 μg/ml or H2O2 100 μM, 10 min",induced vigorous superoxide production
"CN(C)CCCn1cc(C2=C(c3c[nH]c4ccccc34)C(=O)NC2=O)c2ccccc21 [GFX, GF109203X]",effect on PMA response of proton channels,[6]; GFX 3 μM after 60 nM PMA,Most features of the PMA response of proton channels were reversed
